Measurements reported in ChEMBL document CHEMBL5346969 (J Med Chem, 2023).
pIC50: −log10 of the molar value. Calls of active or inactive are those of the source. The rule behind the calls is not given here.

Legend:
MDA-MB-231 [1] = assay: Induction of ferroptosis in human MDA-MB-231 cells assessed as cell viability incubated for 72 hrs in presence of ferroptosis inhibitor, ferrostatin-1 by MTT assay; format: functional, cell-based; conditions: MDA-MB-231, 72 h
[2] = target: T1, Phospholipid hydroperoxide glutathione peroxidase GPX4 (Homo sapiens) (UniProt P36969); assay: Inhibition of GPX4 (unknown origin) at 1 uM incubated for 1 hrs in presence of glutathione and glutathione reductase by microplate reader analysis
T1 sequence (whole entry): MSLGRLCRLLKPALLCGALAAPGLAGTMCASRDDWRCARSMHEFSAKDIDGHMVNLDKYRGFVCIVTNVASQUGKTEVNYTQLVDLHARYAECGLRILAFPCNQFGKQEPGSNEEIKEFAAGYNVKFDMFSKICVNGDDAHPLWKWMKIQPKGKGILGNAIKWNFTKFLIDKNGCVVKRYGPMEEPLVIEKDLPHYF

MCF7 = assay: Antiproliferative activity against human MCF7 cells assessed as inhibition of cell viability at 1 uM incubated for 72 hrs by MTT assay; format: functional, cell-based
Hep 3B2 = assay: Antiproliferative activity against human Hep3B cells assessed as inhibition of cell viability at 1 uM incubated for 72 hrs by MTT assay; format: functional, cell-based
U-87 MG = assay: Antiproliferative activity against human U87 cells assessed as inhibition of cell viability at 1 uM incubated for 72 hrs by MTT assay; format: functional, cell-based; conditions: U-87MG ATCC
MDA-MB-231 [3] = assay: Induction of ferroptosis in human MDA-MB-231 cells assessed as cell viability at 1 uM incubated for 72 hrs in presence of necrosis inhibitor, necrostatin-1 by MTT assay; format: functional, cell-based
MDA-MB-231 [4] = assay: Induction of ferroptosis in human MDA-MB-231 cells assessed as induction of lipid peroxidase accumulation at 5 to 20 nM incubated for 8 hrs by C11-BODIPY-581/591 staining based flow cytometry analysis; format: functional, cell-based; conditions: dose 5-20 nM
MDA-MB-231 [5] = assay: Induction of ferroptosis-mediated morphological changes in human MDA-MB-231 cells assessed as smaller mitochondrial volume at 20 nM incubated for 6 hrs by TEM analysis; format: functional, cell-based
MDA-MB-231 [6] = assay: Induction of ferroptosis-mediated morphological changes in human MDA-MB-231 cells assessed as round and vacuolated cells at 20 nM incubated for 6 hrs by TEM analysis; format: functional, cell-based
[7] = target: T2, Phospholipid hydroperoxide glutathione peroxidase GPX4 (Homo sapiens, UniProt P36969); assay: Inhibition of GPX4 (unknown origin) incubated for 1 hrs in presence of glutathione and glutathione reductase by microplate reader analysis
T2 sequence (P36969 whole entry): T1 sequence (whole entry)

[8] = target: T1, Phospholipid hydroperoxide glutathione peroxidase GPX4 (Homo sapiens); assay: Binding affinity to GPX4 in human MDA-MB-231 cells assessed as reduction in thermal stability at 1 uM incubated for 2 hrs by CESTA analysis; format: cell-based
[9] = target: T1, Phospholipid hydroperoxide glutathione peroxidase GPX4 (Homo sapiens); assay: Binding affinity to GPX4 (35 to 48 residues) (unknown origin) at Sec46 residue assessed as increase in mass of single charged y3+ ion at 100 uM incubated for 1.5 hrs by SDS-PAGE based LC-MS/MS analysis
[10] = target: T1, Phospholipid hydroperoxide glutathione peroxidase GPX4 (Homo sapiens); assay: Binding affinity to GPX4 (unknown origin) at Cys66 residue assessed as change in mass of single charged y4+ ion at 100 uM incubated for 1.5 hrs by SDS-PAGE based LC-MS/MS analysis
[11] = target: T1, Phospholipid hydroperoxide glutathione peroxidase GPX4 (Homo sapiens); assay: Binding affinity to GPX4 (unknown origin) at Cys66 residue assessed as change in mass of single charged y3+ ion at 100 uM incubated for 1.5 hrs by SDS-PAGE based LC-MS/MS analysis
[12] = target: T1, Phospholipid hydroperoxide glutathione peroxidase GPX4 (Homo sapiens); assay: Binding affinity to GPX4 (unknown origin) at Cys66 residue assessed as change in mass of single charged y5+ ion at 100 uM incubated for 1.5 hrs by SDS-PAGE based LC-MS/MS analysis
[13] = target: T1, Phospholipid hydroperoxide glutathione peroxidase GPX4 (Homo sapiens); assay: Binding affinity to GPX4 (unknown origin) at Cys66 residue assessed as change in mass of single charged y6+ ion at 100 uM incubated for 1.5 hrs by SDS-PAGE based LC-MS/MS analysis
[14] = target: T1, Phospholipid hydroperoxide glutathione peroxidase GPX4 (Homo sapiens); assay: Binding affinity to GPX4 (unknown origin) at Cys66 residue assessed as change in mass of single charged b5+ ion at 100 uM incubated for 1.5 hrs by SDS-PAGE based LC-MS/MS analysis
MDA-MB-231 [15] = assay: Induction of ferroptosis in siRNA mediated GPX4 knockdown human MDA-MB-231 cells with assessed as cell viability at 10 nM incubated for 10 hrs by MTT assay; format: functional, cell-based
MDA-MB-231 [16] = assay: Induction of ferroptosis in siRNA mediated GPX4 knockdown human MDA-MB-231 cells with assessed as intracellular lipid peroxidase at 20 nM incubated for 8 hrs by C11-BODIPY-581/591 staining based confocal laser microscopy; format: functional, cell-based
MDA-MB-231 [17] = assay: Induction of ferroptosis in siRNA mediated GPX4 knockdown human MDA-MB-231 cells with assessed as change in FTH1 protein expression level at 20 nM incubated for 8 hrs by Western blot analysis; format: functional, cell-based
MDA-MB-231 [18] = assay: Induction of ferroptosis in siRNA mediated GPX4 knockdown human MDA-MB-231 cells with assessed as change in ACSL4 protein expression level at 20 nM incubated for 8 hrs by Western blot analysis; format: functional, cell-based
MDA-MB-231 [19] = assay: Induction of ferroptosis in human MDA-MB-231 cells with assessed as change in GPX4 mRNA expression level at 5 to 20 nM incubated for 8 hrs by qRT-PCR analysis; format: functional, cell-based; conditions: dose 5-20 nM
MDA-MB-231 [20] = assay: Induction of ferroptosis in human MDA-MB-231 cells with assessed as reduction in cell viability at 5 to 20 nM incubated for 4 to 10 hrs by MTT assay; format: functional, cell-based; conditions: dose 5-20 nM, time 4-10 hrs
MDA-MB-231 [21] = assay: Induction of ferroptosis in human MDA-MB-231 cells with assessed as decrease in intracellular GSH level at 20 nM incubated for 8 hrs by colorimetric assay; format: functional, cell-based
[22] = Toxicity in immunodeficient BALB/c mouse assessed as change in CREA level at 20 mg/kg, ip for 14 days by biochemical analysis; format: organism-based; conditions: in vivo, 336 h, time 14 day
[23] = Toxicity in immunodeficient BALB/c mouse assessed as change in CK level at 20 mg/kg, ip for 14 days by biochemical analysis; format: organism-based; conditions: in vivo, 336 h, time 14 day
[24] = Metabolic stability in human liver microsomes assessed as half life at 1 uM incubated upto 60 mins in presence of NADPH by LC-MS/MS analysis; format: ADME, Microsome
[25] = Tmax in rat at 10 mg/kg, ip and measured upto 24 hrs by LC-MS/MS analysis; format: ADME, organism-based; conditions: in vivo
[26] = Cmax in rat at 10 mg/kg, ip and measured upto 24 hrs by LC-MS/MS analysis; format: ADME, organism-based; set-up: time < 24 hrs, dose 10 mg/kg, route ip; conditions: in vivo
[27] = AUCt in rat at 10 mg/kg, ip and measured upto 24 hrs by LC-MS/MS analysis; format: ADME, organism-based; set-up: dose 10 mg/kg, time < 24 hrs, route ip; conditions: in vivo
[28] = MRT(t) in rat at 10 mg/kg, ip and measured upto 24 hrs by LC-MS/MS analysis; format: ADME, organism-based; conditions: in vivo
[29] = Clearance in rat at 10 mg/kg, ip and measured upto 24 hrs by LC-MS/MS analysis; format: ADME, organism-based; conditions: in vivo
[30] = Acute toxicity in ICR mouse assessed as lethality at 200 to 488 mg/kg,ip and measured after 14 days; format: organism-based; conditions: in vivo, dose 200-488 mg/kg, time 14 day

Compound | pIC50 (MDA-MB-231 [1]) | inhibition [2] | Activity (MCF7) | Activity (Hep 3B2) | Activity (U-87 MG) | Activity (MDA-MB-231 [3]) | Activity (MDA-MB-231 [4]) | Activity (MDA-MB-231 [5]) | Activity (MDA-MB-231 [6]) | pIC50 [7] | Activity (MDA-MB-231 [19]) | Activity (MDA-MB-231 [21]) | Activity [22] | Activity [23] | half-life at 1 µM [24] | also measured
COc1cc(N(C(=O)CCl)c2ccc3c(c2)OCCO3)cc(OC)c1F | 5.59 | 98.8% | Active | inactive | inactive | inactive | Dose-Dependent Effect | Active | Active | 6.92 | inactive | Active | Toxic | Toxic | 3.34 min | Activity [8]: Active; Activity [9]: Active; Activity [10]: inactive; Activity [11]: inactive; Activity [12]: inactive; Activity [13]: inactive; Activity [14]: inactive; Activity (MDA-MB-231 [15]): inactive; Activity (MDA-MB-231 [16]): Active; Activity (MDA-MB-231 [17]): inactive; Activity (MDA-MB-231 [18]): inactive; Activity (MDA-MB-231 [20]): Dose-Dependent Effect; Tmax [25]: 51 min; Cmax [26]: 5205 ng/mL; AUCt [27]: 12100 ng·h/mL; MRT last at 24 h [28]: 103 min; CL [29]: 13.8 mL/min/kg; LD50 at 336 h [30]: 338 mg/kg
COc1cc(N(C(=O)CBr)c2ccc3c(c2)OCCO3)cc(OC)c1F | 5.76 | 97.4% | inactive | inactive | inactive | inactive | Dose-Dependent Effect | Active | Active | 6.89 | inactive | Active | Toxic | Toxic | 0.79 min | 
